Measurements as given in patent US20190192618A1 (priority 2016, published 2019).
Read-outs that look alike come from different tables or passages of the source. Bridge positions count the residues as written; N and C are the ends. Square brackets hold non-standard residues; d marks the D form. Peptide text beside a SMILES is read from it. Dab = NCC[C@H](N)C(=O)O

Experiments:
[1] = target: T1, hERG potassium channel (Homo sapiens, UniProt Q12809); experiment: hERG current inhibition, single cell patch clamp in HEK293 cells; format: cell-based
T1 construct: expressed in transfected cells
Procedure: Currents were recorded via single cell patch clamp.

[2] = in vivo; conditions: male, mouse, plasma, 10 mg/kg
Procedure: (§1) PK analysis was performed using Phoenix® WinNonlin® Version 6.3 (Pharsight Corp. [Mountain View, Calif.]). […] The standard species body weights were assumed to perform allometric scaling purposes. For scaling, mouse, rat, monkey, and human weight were assumed to be 0.02, 0.25, 5, and 70 kg, respectively. PK data from only male animals were available for scaling.
(§2) A MixRatio (additive and multiplicative) weighting was applied for all PK modeling.
(§3) Single dose simulations were done using the low clearance estimate and high clearance estimate obtained from allometric scaling. […] Day 1 data was unavailable for rat. Only 2-3 measurable time points were used in the mouse PK data.

[3] = GLP 14 day repeat dose toxicology study in monkeys incl. CNS assessment; conditions: cynomolgus monkey, in vivo
Procedure: Histopathologic assessment was conducted on tissue sections stained with hematoxylin and eosin (H&E).
The neurological assessment was performed on study day 9 or 10 and compared to both pre-test data (study day −6 or −7) as well as the vehicle control.

[4] = GLP 14 day repeat dose study in rats, toxicology; conditions: rat
Procedure: Parameters assessed during the in-life phase of the study included weekly body weights, clinical observations, survival, food consumption, ophthalmology, clinical pathology, and urine and plasma toxicokinetics. At necropsy, gross observations were recorded, organ weights were measured, and specific tissues were collected. Histopathologic assessment was conducted on tissue sections stained with hematoxylin and eosin (H&E).
The use of an escalation phase was due to the acute histamine and/or complement mediated reactions commonly seen in rats with a broad range of polymyxins.
For toxicology assessment, all animals were observed twice daily for mortality and moribundity. Clinical examinations were performed daily, and detailed physical examinations were performed weekly. Ophthalmic examinations were performed during once prior to study initiation and once during the study. Clinical pathology parameters (including Blood Urea Nitrogen and Serum Creatinine) were analyzed for all animals assigned to the scheduled necropsies. Complete necropsies were conducted on all animals, and selected organs were weighed at the scheduled necropsies. […] Gross lesions and infusion sites were examined from all animals in the low-dose group at the primary necropsy. Recovery was assessed in the mid-dose group and the control group following a 28-day non-dosing period. Following the 28-day non-dosing (recovery) period, complete necropsies were conducted on all animals, and selected organs were weighed at the scheduled necropsy. Selected tissues were examined microscopically from all animals.

[5] = in vivo; conditions: Sprague-Dawley, rat, plasma, iv, 1-hour IV infusion twice daily; for AUC(0-t): AUC(0-24)
[6] = Cardiopulmonary safety pharmacology study in monkeys; conditions: for Body Temperature / Heart Rate / Mean Arterial Blood Pressure / QTc Interval / Respiratory Rate: monkey, in vivo
Procedure: The monkeys in the study were telemeterized prior to study start. Data was collected in one minute intervals over a 24 hour period. The data was reported in 15 minute intervals over the first three hours.

[7] = in vivo; conditions: male, monkey, plasma, 20 mg/kg
Procedure: as §1, §2, §3

[8] = rat, following 14 days of repeated dosing
[9] = Efficacy studies in mice (mouse thigh studies); format: in vivo; conditions: mouse thigh studies with SPR741 and rifampin
Procedure: A 70 kg human weight was used in all models.
Pharmacologic HED was then calculated using the equation below: […]

[10] = in vivo; conditions: male, rat, plasma, 10 mg/kg
Procedure: as §1, §2, §3

[11] = human, fixed exponent, monkey PK data
[12] = human, fixed exponent, mouse PK data
[13] = human, fixed exponent, rat PK data
[14] = human, floating exponent, mouse, rat and monkey PK data
[15] = human, floating exponent, rat and monkey PK data
[16] = 5 mg/kg/day, 5 mg/kg/day, study day 1
[17] = 5 mg/kg/day, 5 mg/kg/day, study day 14
[18] = 10 mg/kg/day, 10 mg/kg/day, study day 1
[19] = 10 mg/kg/day, 10 mg/kg/day, study day 14
[20] = 15 mg/kg/day, 15 mg/kg/day, study day 1
[21] = 15 mg/kg/day, 15 mg/kg/day, study day 14

T1 sequence (Q12809 whole entry): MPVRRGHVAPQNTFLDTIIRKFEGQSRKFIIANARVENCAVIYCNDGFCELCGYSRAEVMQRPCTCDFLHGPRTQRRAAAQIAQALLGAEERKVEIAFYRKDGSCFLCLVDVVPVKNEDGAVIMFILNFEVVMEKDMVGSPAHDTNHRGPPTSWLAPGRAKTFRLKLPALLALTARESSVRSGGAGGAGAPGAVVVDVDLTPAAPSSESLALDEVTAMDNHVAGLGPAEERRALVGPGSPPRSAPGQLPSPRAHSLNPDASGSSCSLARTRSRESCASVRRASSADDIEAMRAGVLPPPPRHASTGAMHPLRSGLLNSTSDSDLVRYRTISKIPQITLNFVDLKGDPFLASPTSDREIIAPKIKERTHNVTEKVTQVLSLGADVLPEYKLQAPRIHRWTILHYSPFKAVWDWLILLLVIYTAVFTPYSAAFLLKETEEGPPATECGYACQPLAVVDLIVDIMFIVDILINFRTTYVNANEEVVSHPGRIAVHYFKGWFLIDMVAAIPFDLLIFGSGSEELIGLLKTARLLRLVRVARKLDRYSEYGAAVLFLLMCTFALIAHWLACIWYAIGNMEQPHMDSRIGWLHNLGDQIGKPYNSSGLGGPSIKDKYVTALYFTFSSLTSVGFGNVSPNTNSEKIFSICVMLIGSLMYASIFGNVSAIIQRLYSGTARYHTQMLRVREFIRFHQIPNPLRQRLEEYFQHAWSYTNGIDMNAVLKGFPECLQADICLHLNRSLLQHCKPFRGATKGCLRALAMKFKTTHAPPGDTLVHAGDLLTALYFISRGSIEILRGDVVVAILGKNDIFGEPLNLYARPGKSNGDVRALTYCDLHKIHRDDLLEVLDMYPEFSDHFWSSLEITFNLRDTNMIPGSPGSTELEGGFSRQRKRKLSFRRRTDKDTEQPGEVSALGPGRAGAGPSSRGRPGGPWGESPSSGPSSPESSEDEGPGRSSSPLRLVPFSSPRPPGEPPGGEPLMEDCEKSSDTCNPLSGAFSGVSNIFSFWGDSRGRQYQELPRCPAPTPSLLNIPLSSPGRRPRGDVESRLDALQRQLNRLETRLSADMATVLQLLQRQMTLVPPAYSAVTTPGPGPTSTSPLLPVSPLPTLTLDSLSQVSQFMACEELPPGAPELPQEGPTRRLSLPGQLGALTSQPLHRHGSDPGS

COc1cc(N)c(Cl)cc1C(=O)NC1CCN(CCCOc2ccc(F)cc2)CC1OC (stereo not shown) [Cisapride, reference compound]
inhibition at 0.047 μg/mL ([1]; human): 79.8%

CC(=O)N[C@H](C(=O)N[C@H](CO)C(=O)N[C@H]1CCNC(=O)[C@H]([C@@H](C)O)NC(=O)[C@H](CCN)NC(=O)[C@H](CCN)NC(=O)[C@H](CC(C)C)NC(=O)[C@@H](Cc2ccccc2)NC(=O)[C@H](CCN)NC1=O)[C@@H](C)O [SPR741, Acetyl-Thr-dSer-cy[Dab-Dab-dPhe-Leu-Dab-Dab-Thr]] (Ac-T[dS][Dab][Dab][dF]L[Dab][Dab]T; lactam 3-C)
Vd [2]: 0.179 L/kg | clearance [2]: 7.37 mL/min/kg | NOAEL at 14 days ([3]; both): 40 mg/kg/day | Reversibility of nephrotoxicity [3]: fully reversible | Tolerability ([4]; dose levels higher than 5 mg/kg): exhibited toxicity | Tolerability ([4]; in vivo, 5 mg/kg): well tolerated | % BUN increase relative to control (mg/dL) ([4]; in vivo, 10 mg/kg/day): 34% | % BUN increase relative to control (mg/dL) ([4]; in vivo, 15 mg/kg/day): 59% | % Control CRN ([4]; in vivo, 15 mg/kg/day): 59% | CL (human 70 kg, fixed exponent, monkey PK data): 70.8 mg/h/kg | CL (human 70 kg, fixed exponent, mouse PK data): 57.5 mg/h/kg | CL (human 70 kg, fixed exponent, rat PK data): 103 mg/h/kg | CL [11]: 1.18 mL/min/kg | T1/2 [11]: 2.33 h | CL [12]: 0.958 mL/min/kg | T1/2 [12]: 2.16 h | Vd [12]: 0.179 L/kg | CL [13]: 1.72 mL/min/kg | T1/2 [13]: 2.31 h | Vd [13]: 0.345 L/kg | CL [14]: 1.5 mL/min/kg | T1/2 [14]: 2.44 h | Vd [14]: 0.315 L/kg | CL [15]: 0.847 mL/min/kg | T1/2 [15]: 2.34 h | Vd [15]: 0.172 L/kg | AUC(0-t) [5, 16]: 8200 ng·h/mL | AUC(0-t) [5, 17]: 8300 ng·h/mL | Cmax [5, 16]: 3400 ng/mL | Cmax [5, 17]: 3300 ng/mL | AUC(0-t) [5, 18]: 25000 ng·h/mL | AUC(0-t) [5, 19]: 20300 ng·h/mL | Cmax [5, 18]: 9500 ng/mL | Cmax [5, 19]: 6700 ng/mL | AUC(0-t) [5, 20]: 47400 ng·h/mL | AUC(0-t) [5, 21]: 32900 ng·h/mL | Cmax [5, 20]: 14900 ng/mL | Cmax [5, 21]: 10800 ng/mL | Body Temperature ([6]; 5 mg/kg): 38.3 °C | Heart Rate ([6]; 5 mg/kg): 142 bpm | Mean Arterial Blood Pressure ([6]; 5 mg/kg): 105 mm Hg | QTc Interval ([6]; 5 mg/kg): 220 ms | Respiratory Rate ([6]; 5 mg/kg): 27 | Body Temperature ([6]; 10 mg/kg): 38.3 °C | Heart Rate ([6]; 10 mg/kg): 141 bpm | Mean Arterial Blood Pressure ([6]; 10 mg/kg): 104 mm Hg | QTc Interval ([6]; 10 mg/kg): 222 ms | Respiratory Rate ([6]; 10 mg/kg): 25 | Body Temperature ([6]; 20 mg/kg): 38.7 °C | Heart Rate ([6]; 20 mg/kg): 145 bpm | Mean Arterial Blood Pressure ([6]; 20 mg/kg): 97 mm Hg | QTc Interval ([6]; 20 mg/kg): 220 ms | Respiratory Rate ([6]; 20 mg/kg): 26 | SPR741-related clinical signs or changes in body weight, body temperature, blood pressures, heart rate, ECG intervals, respiratory rate, tidal volume, minute volume ([6]; monkeys, cardiopulmonary study): no SPR741-related clinical signs | Vd [7]: 0.238 L/kg | clearance [7]: 2.28 mL/min/kg | Systemic exposure versus dose [8]: dose dependent proportional systemic exposure | AUC value of efficacy data [9]: 60 µg·h/mL | Vd [10]: 0.345 L/kg | clearance [10]: 7.05 mL/min/kg | IC50 [1]: could not be calculated | Change in mean hERG-mediated potassium currents ([1]; concentrations up to 300 μg/mL): no meaningful change | inhibition at 10 μg/mL ([1]; human): 0.08% | inhibition at 30 μg/mL ([1]; human): -0.09% | inhibition at 100 μg/mL ([1]; human): 1.62% | inhibition at 300 μg/mL ([1]; human): 3.87%
